Results: PubChem BioAssay AID2060900 (Molecular Pharmacology Branch, DTP, NCI, 2025)

system: 521955-158-R2-J5-PDC complex spheroids, viability; test: Anticancer human tumor 521955-158-R2-J5-PDC patient-derived pancreatic carcinoma cell line growth inhibition [RAS]; details: second compound 1 µM; first compound 0.0316 µM; stronger effect = lower value
Outline: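 Multi-cell-type spheroids: tumor cells plus HUVEC endothelial cells and mesenchymal stem cells. RAS-pathway inhibitors were combined with targeted agents, each dosed in half-log steps down from clinical Cmax, or from 10 microM when Cmax was unknown.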
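Note: spheroids also contain HUVEC endothelial cells and mesenchymal stem cells as stroma; compound exposure lasted seven days before the viability read.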

Going from CCC(CC)c1cc(NC2CCC(N)C2)n2nccc2n1 (configuration not stated) + C=CC(=O)N1CCN(c2nc(OCC3CCCN3C)nc3c(F)c(-c4nc(N)cc(C)c4C(F)(F)F)c(Cl)cc23)C(C)C1 to Cc1nc(N2CCC3(CC2)COC(C)C3N)c(CO)nc1Sc1ccnc(N)c1Cl (configuration not stated) + C=CC(=O)N1CCN(c2nc(OCC3CCCN3C)nc3c(F)c(-c4nc(N)cc(C)c4C(F)(F)F)c(Cl)cc23)C(C)C1, the viability, T/C rises from 102% to 106%.

First: CCN1CCN(Cc2ccc(Nc3ncc(F)c(-c4cc(F)c5nc(C)n(C(C)C)c5c4)n3)nc2)CC1 + C=CC(=O)N1CCN(c2nc(OCC3CCCN3C)nc3c(F)c(-c4nc(N)cc(C)c4C(F)(F)F)c(Cl)cc23)C(C)C1
Second: NC1c2ccccc2OC12CCN(c1cnc3c(N4CCCc5ncccc54)n[nH]c3n1)CC2 (configuration not stated) + C=CC(=O)N1CCN(c2nc(OCC3CCCN3C)nc3c(F)c(-c4nc(N)cc(C)c4C(F)(F)F)c(Cl)cc23)C(C)C1
The viability, T/C of the first is higher: 81.8% for the first, 70.3% for the second.

same assay, conditions: second compound 1 µM; first compound 0.1 µM; stronger effect = lower value

Going from CC1(O)CCCC1n1c(=O)c(C(F)F)cc2cnc(NC3CCN(S(C)(=O)=O)CC3)nc21 (configuration not stated) + C=CC(=O)N1CCN(c2nc(OCC3CCCN3C)nc3c(F)c(-c4nc(N)cc(C)c4C(F)(F)F)c(Cl)cc23)C(C)C1 to Cc1nc(N2CCC3(CC2)COC(C)C3N)c(CO)nc1Sc1ccnc(N)c1Cl (configuration not stated) + C=CC(=O)N1CCN(c2nc(OCC3CCCN3C)nc3c(F)c(-c4nc(N)cc(C)c4C(F)(F)F)c(Cl)cc23)C(C)C1, the viability, T/C falls from 89.1% to 70.1%.

First: CCC(CC)c1cc(NC2CCC(N)C2)n2nccc2n1 (configuration not stated) + C=CC(=O)N1CCN(c2nc(OCC3CCCN3C)nc3c(F)c(-c4nc(N)cc(C)c4C(F)(F)F)c(Cl)cc23)C(C)C1
Second: NC1c2ccccc2OC12CCN(c1cnc3c(N4CCCc5ncccc54)n[nH]c3n1)CC2 (configuration not stated) + C=CC(=O)N1CCN(c2nc(OCC3CCCN3C)nc3c(F)c(-c4nc(N)cc(C)c4C(F)(F)F)c(Cl)cc23)C(C)C1
The viability, T/C of the first is higher: 107% for the first, 61.4% for the second.

Compound CCN1CCN(Cc2ccc(Nc3ncc(F)c(-c4cc(F)c5nc(C)n(C(C)C)c5c4)n3)nc2)CC1 + C=CC(=O)N1CCN(c2nc(OCC3CCCN3C)nc3c(F)c(-c4nc(N)cc(C)c4C(F)(F)F)c(Cl)cc23)C(C)C1 has a viability, T/C of 75.6%.

same assay, conditions: second compound 1 µM; first compound 0.316 µM; stronger effect = lower value

Compared with CC1(O)CCCC1n1c(=O)c(C(F)F)cc2cnc(NC3CCN(S(C)(=O)=O)CC3)nc21 (configuration not stated) + C=CC(=O)N1CCN(c2nc(OCC3CCCN3C)nc3c(F)c(-c4nc(N)cc(C)c4C(F)(F)F)c(Cl)cc23)C(C)C1, Cc1nc(N2CCC3(CC2)COC(C)C3N)c(CO)nc1Sc1ccnc(N)c1Cl (configuration not stated) + C=CC(=O)N1CCN(c2nc(OCC3CCCN3C)nc3c(F)c(-c4nc(N)cc(C)c4C(F)(F)F)c(Cl)cc23)C(C)C1 is lower in viability, T/C: 69.5% for the first, 66.5% for the second.

Going from CCC(CC)c1cc(NC2CCC(N)C2)n2nccc2n1 (configuration not stated) + C=CC(=O)N1CCN(c2nc(OCC3CCCN3C)nc3c(F)c(-c4nc(N)cc(C)c4C(F)(F)F)c(Cl)cc23)C(C)C1 to NC1c2ccccc2OC12CCN(c1cnc3c(N4CCCc5ncccc54)n[nH]c3n1)CC2 (configuration not stated) + C=CC(=O)N1CCN(c2nc(OCC3CCCN3C)nc3c(F)c(-c4nc(N)cc(C)c4C(F)(F)F)c(Cl)cc23)C(C)C1, the viability, T/C falls from 125% to 54.7%.

CCN1CCN(Cc2ccc(Nc3ncc(F)c(-c4cc(F)c5nc(C)n(C(C)C)c5c4)n3)nc2)CC1 + C=CC(=O)N1CCN(c2nc(OCC3CCCN3C)nc3c(F)c(-c4nc(N)cc(C)c4C(F)(F)F)c(Cl)cc23)C(C)C1 was tested, and the viability, T/C was 93.5%.

same assay, conditions: second compound 1 µM; first compound 1 µM; stronger effect = lower value

Compared with CC1(O)CCCC1n1c(=O)c(C(F)F)cc2cnc(NC3CCN(S(C)(=O)=O)CC3)nc21 (configuration not stated) + C=CC(=O)N1CCN(c2nc(OCC3CCCN3C)nc3c(F)c(-c4nc(N)cc(C)c4C(F)(F)F)c(Cl)cc23)C(C)C1, Cc1nc(N2CCC3(CC2)COC(C)C3N)c(CO)nc1Sc1ccnc(N)c1Cl (configuration not stated) + C=CC(=O)N1CCN(c2nc(OCC3CCCN3C)nc3c(F)c(-c4nc(N)cc(C)c4C(F)(F)F)c(Cl)cc23)C(C)C1 is lower in viability, T/C: 84% for the first, 62.6% for the second.

Compared with CCC(CC)c1cc(NC2CCC(N)C2)n2nccc2n1 (configuration not stated) + C=CC(=O)N1CCN(c2nc(OCC3CCCN3C)nc3c(F)c(-c4nc(N)cc(C)c4C(F)(F)F)c(Cl)cc23)C(C)C1, NC1c2ccccc2OC12CCN(c1cnc3c(N4CCCc5ncccc54)n[nH]c3n1)CC2 (configuration not stated) + C=CC(=O)N1CCN(c2nc(OCC3CCCN3C)nc3c(F)c(-c4nc(N)cc(C)c4C(F)(F)F)c(Cl)cc23)C(C)C1 is lower in viability, T/C: 110% for the first, 69.6% for the second.

For CCN1CCN(Cc2ccc(Nc3ncc(F)c(-c4cc(F)c5nc(C)n(C(C)C)c5c4)n3)nc2)CC1 + C=CC(=O)N1CCN(c2nc(OCC3CCCN3C)nc3c(F)c(-c4nc(N)cc(C)c4C(F)(F)F)c(Cl)cc23)C(C)C1, the viability, T/C was 100%.

same assay, conditions: second compound 1 µM; first compound 3.16 µM; stronger effect = lower value

First: CC1(O)CCCC1n1c(=O)c(C(F)F)cc2cnc(NC3CCN(S(C)(=O)=O)CC3)nc21 (configuration not stated) + C=CC(=O)N1CCN(c2nc(OCC3CCCN3C)nc3c(F)c(-c4nc(N)cc(C)c4C(F)(F)F)c(Cl)cc23)C(C)C1
Second: Cc1nc(N2CCC3(CC2)COC(C)C3N)c(CO)nc1Sc1ccnc(N)c1Cl (configuration not stated) + C=CC(=O)N1CCN(c2nc(OCC3CCCN3C)nc3c(F)c(-c4nc(N)cc(C)c4C(F)(F)F)c(Cl)cc23)C(C)C1
The viability, T/C of the first is higher: 119% for the first, 55.3% for the second.

Going from CCC(CC)c1cc(NC2CCC(N)C2)n2nccc2n1 (configuration not stated) + C=CC(=O)N1CCN(c2nc(OCC3CCCN3C)nc3c(F)c(-c4nc(N)cc(C)c4C(F)(F)F)c(Cl)cc23)C(C)C1 to NC1c2ccccc2OC12CCN(c1cnc3c(N4CCCc5ncccc54)n[nH]c3n1)CC2 (configuration not stated) + C=CC(=O)N1CCN(c2nc(OCC3CCCN3C)nc3c(F)c(-c4nc(N)cc(C)c4C(F)(F)F)c(Cl)cc23)C(C)C1, the viability, T/C rises from 10.1% to 60.4%.

same assay, conditions: second compound 1 µM; first compound 10 µM; stronger effect = lower value

First: CC1(O)CCCC1n1c(=O)c(C(F)F)cc2cnc(NC3CCN(S(C)(=O)=O)CC3)nc21 (configuration not stated) + C=CC(=O)N1CCN(c2nc(OCC3CCCN3C)nc3c(F)c(-c4nc(N)cc(C)c4C(F)(F)F)c(Cl)cc23)C(C)C1
Second: Cc1nc(N2CCC3(CC2)COC(C)C3N)c(CO)nc1Sc1ccnc(N)c1Cl (configuration not stated) + C=CC(=O)N1CCN(c2nc(OCC3CCCN3C)nc3c(F)c(-c4nc(N)cc(C)c4C(F)(F)F)c(Cl)cc23)C(C)C1
The viability, T/C of the first is lower: 13% for the first, 48.3% for the second.

Going from CCC(CC)c1cc(NC2CCC(N)C2)n2nccc2n1 (configuration not stated) + C=CC(=O)N1CCN(c2nc(OCC3CCCN3C)nc3c(F)c(-c4nc(N)cc(C)c4C(F)(F)F)c(Cl)cc23)C(C)C1 to NC1c2ccccc2OC12CCN(c1cnc3c(N4CCCc5ncccc54)n[nH]c3n1)CC2 (configuration not stated) + C=CC(=O)N1CCN(c2nc(OCC3CCCN3C)nc3c(F)c(-c4nc(N)cc(C)c4C(F)(F)F)c(Cl)cc23)C(C)C1, the viability, T/C rises from 13% to 58.3%.
